Test results reported in patent US11572369B2, “Bicyclic pyridine compositions and methods of using the same for cancer therapy” (UNIVERSITY OF SOUTH CAROLINA, priority 2019, dated 2023).

Assays:
Assay in all cases: KINOMEscan
Format in all cases: binding
Conditions in all cases: 2000 nM
FLT1 = target: T1, FLT1 (Homo sapiens, UniProt P17948)
T1 construct: purchased DiscoveRx (KINOMEscan scanMAX panel)

ULK2 = target: T2, ULK2 (Homo sapiens, UniProt Q8IYT8)
T2 construct: DNA label (for qPCR read-out); purchased DiscoveRx (KINOMEscan scanMAX panel)

LCK = target: T3, LCK (Homo sapiens, UniProt P06239)
T3 construct: purchased KINOMEscan (DiscoveRx) panel service

LTK = target: T4, LTK (Homo sapiens, UniProt P29376)
T4 construct: purchased KINOMEscan (DiscoveRx) panel service

CDK4 = target: T5, CDK4 (Homo sapiens, UniProt P11802)
T5 construct: purchased DiscoverX (KINOMEscan service)

SIK = target: T6, SIK (Homo sapiens, UniProt P57059)
T6 construct: purchased KINOMEscan (DiscoveRx)

SgK110 = target: T7, SgK110 (Homo sapiens, UniProt P0C264)
T7 construct: purchased DiscoveRx (KINOMEscan scanMAX panel)

LRRK2(G2019S) = target: T8, LRRK2(G2019S) (Homo sapiens, UniProt Q5S007, G2019S)
T8 construct: purchased KINOMEscan (DiscoveRx) panel service

PIK3CA(H1047Y) = target: T9, PIK3CA(H1047Y) (Homo sapiens, UniProt P42336, H1047Y)
T9 construct: DNA label; purchased DiscoveRx (KINOMEscan scanMAX panel)

AURKA = target: T10, AURKA (Homo sapiens, UniProt O14965)
T10 construct: DNA label (qPCR read-out); purchased KINOMEscan scanMAX panel (DiscoveRx)

RIPK2 = target: T11, RIPK2 (Homo sapiens, UniProt O43353)
T11 construct: DNA label (qPCR read-out); purchased DiscoveRx (KINOMEscan ScanMAX panel)

PCTK1 = target: T12, PCTK1 (Homo sapiens, UniProt Q00536)
T12 construct: purchased DiscoverX (KINOMEscan service)

PDGFRB = target: T13, PDGFRB (Homo sapiens, UniProt P09619)
T13 construct: DNA label (for qPCR read-out); purchased DiscoveRx (KINOMEscan scanMAX service)

AMPK-alpha1 = target: T14, AMPK-alpha1 (Homo sapiens, UniProt Q13131)
T14 construct: DNA label (qPCR read-out); purchased KINOMEscan scanMAX panel (DiscoveRx)

DRAK2 = target: T15, DRAK2 (Homo sapiens, UniProt O94768)
T15 construct: DNA label (qPCR read-out); purchased KINOMEscan (DiscoveRx) panel

RIPK4 = target: T16, RIPK4 (Homo sapiens, UniProt P57078)
T16 construct: DNA label (qPCR read-out); purchased DiscoveRx (KINOMEscan ScanMAX panel)

MAP3K4 = MAP3K4 (Homo sapiens, UniProt Q9Y6R4)
MYO3A = target: T17, MYO3A (Homo sapiens, UniProt Q8NEV4)
T17 construct: DNA label (for qPCR read-out); purchased KINOMEscan scanMAX panel (DiscoveRx)

[1] = target: T18, RPS6KA4(Kin.Dom.1-N-terminal) (Homo sapiens, UniProt O75676)
T18 construct: Kin.Dom.1; DNA label (qPCR read-out); purchased DiscoveRx (KINOMEscan ScanMAX panel)

PIP5K1C = target: T19, PIP5K1C (Homo sapiens, UniProt O60331)
T19 construct: DNA label (qPCR read-out); purchased KINOMEscan (DiscoveRx) panel

PRKCI = target: T20, PRKCI (Homo sapiens, UniProt P41743)
T20 construct: purchased DiscoveRx (KINOMEscan scanMAX panel)

FLT3(D835V) = target: T21, FLT3(D835V) (Homo sapiens, UniProt P36888, D835V)
T21 construct: purchased DiscoveRx (KINOMEscan scanMAX panel)

EGFR(L747-T751del, Sins) = target: T22, EGFR(L747-T751del, Sins) (Homo sapiens, UniProt P00533, DEL747-750/T751S)
T22 construct: purchased DiscoveRx (KINOMEscan scanMAX panel)

TRKC = target: T23, TRKC (Homo sapiens, UniProt Q16288)
T23 construct: DNA label (qPCR read-out); purchased KINOMEscan (DiscoveRx) ScanMAX panel

INSRR = target: T24, INSRR (Homo sapiens, UniProt P14616)
T24 construct: DNA label (qPCR read-out); purchased KINOMEscan (DiscoveRx) ScanMAX panel

CDK9 = target: T25, CDK9 (Homo sapiens, UniProt P50750)
T25 construct: purchased DiscoverX (KINOMEscan service)

CSNK1D = target: T26, CSNK1D (Homo sapiens, UniProt P48730)
T26 construct: DNA label (qPCR read-out); purchased DiscoverX (assay service)

FRK = target: T27, FRK (Homo sapiens, UniProt P42685)
T27 construct: purchased KINOMEscan (DiscoveRx)

CDK8 = target: T28, CDK8 (Homo sapiens, UniProt P49336)
T28 construct: DNA label (qPCR read-out); purchased DiscoverX (assay service)

CDK3 = target: T29, CDK3 (Homo sapiens, UniProt Q00526)
T29 construct: purchased DiscoverX (KINOMEscan service)

FGFR4 = target: T30, FGFR4 (Homo sapiens, UniProt P22455)
T30 construct: purchased DiscoveRx (KINOMEscan scanMAX panel)

[2] = target: T31, RSK1(Kin.Dom.1-N-terminal) (Homo sapiens, UniProt Q15418)
T31 construct: RSK1(Kin.Dom.1); purchased DiscoveRx (KINOMEscan scanMAX panel)

BMPR1B = target: T32, BMPR1B (Homo sapiens, UniProt O00238)
T32 construct: DNA label (for qPCR read-out); purchased KINOMEscan scanMAX panel (DiscoveRx)

FGR = target: T33, FGR (Homo sapiens, UniProt P09769)
T33 construct: purchased DiscoveRx (KINOMEscan scanMAX panel)

RIPK5 = target: T34, RIPK5 (Homo sapiens, UniProt Q6XUX3)
T34 construct: DNA label (qPCR read-out); purchased DiscoveRx (KINOMEscan ScanMAX panel)

Sequence of MAP3K4 (Q9Y6R4 whole entry): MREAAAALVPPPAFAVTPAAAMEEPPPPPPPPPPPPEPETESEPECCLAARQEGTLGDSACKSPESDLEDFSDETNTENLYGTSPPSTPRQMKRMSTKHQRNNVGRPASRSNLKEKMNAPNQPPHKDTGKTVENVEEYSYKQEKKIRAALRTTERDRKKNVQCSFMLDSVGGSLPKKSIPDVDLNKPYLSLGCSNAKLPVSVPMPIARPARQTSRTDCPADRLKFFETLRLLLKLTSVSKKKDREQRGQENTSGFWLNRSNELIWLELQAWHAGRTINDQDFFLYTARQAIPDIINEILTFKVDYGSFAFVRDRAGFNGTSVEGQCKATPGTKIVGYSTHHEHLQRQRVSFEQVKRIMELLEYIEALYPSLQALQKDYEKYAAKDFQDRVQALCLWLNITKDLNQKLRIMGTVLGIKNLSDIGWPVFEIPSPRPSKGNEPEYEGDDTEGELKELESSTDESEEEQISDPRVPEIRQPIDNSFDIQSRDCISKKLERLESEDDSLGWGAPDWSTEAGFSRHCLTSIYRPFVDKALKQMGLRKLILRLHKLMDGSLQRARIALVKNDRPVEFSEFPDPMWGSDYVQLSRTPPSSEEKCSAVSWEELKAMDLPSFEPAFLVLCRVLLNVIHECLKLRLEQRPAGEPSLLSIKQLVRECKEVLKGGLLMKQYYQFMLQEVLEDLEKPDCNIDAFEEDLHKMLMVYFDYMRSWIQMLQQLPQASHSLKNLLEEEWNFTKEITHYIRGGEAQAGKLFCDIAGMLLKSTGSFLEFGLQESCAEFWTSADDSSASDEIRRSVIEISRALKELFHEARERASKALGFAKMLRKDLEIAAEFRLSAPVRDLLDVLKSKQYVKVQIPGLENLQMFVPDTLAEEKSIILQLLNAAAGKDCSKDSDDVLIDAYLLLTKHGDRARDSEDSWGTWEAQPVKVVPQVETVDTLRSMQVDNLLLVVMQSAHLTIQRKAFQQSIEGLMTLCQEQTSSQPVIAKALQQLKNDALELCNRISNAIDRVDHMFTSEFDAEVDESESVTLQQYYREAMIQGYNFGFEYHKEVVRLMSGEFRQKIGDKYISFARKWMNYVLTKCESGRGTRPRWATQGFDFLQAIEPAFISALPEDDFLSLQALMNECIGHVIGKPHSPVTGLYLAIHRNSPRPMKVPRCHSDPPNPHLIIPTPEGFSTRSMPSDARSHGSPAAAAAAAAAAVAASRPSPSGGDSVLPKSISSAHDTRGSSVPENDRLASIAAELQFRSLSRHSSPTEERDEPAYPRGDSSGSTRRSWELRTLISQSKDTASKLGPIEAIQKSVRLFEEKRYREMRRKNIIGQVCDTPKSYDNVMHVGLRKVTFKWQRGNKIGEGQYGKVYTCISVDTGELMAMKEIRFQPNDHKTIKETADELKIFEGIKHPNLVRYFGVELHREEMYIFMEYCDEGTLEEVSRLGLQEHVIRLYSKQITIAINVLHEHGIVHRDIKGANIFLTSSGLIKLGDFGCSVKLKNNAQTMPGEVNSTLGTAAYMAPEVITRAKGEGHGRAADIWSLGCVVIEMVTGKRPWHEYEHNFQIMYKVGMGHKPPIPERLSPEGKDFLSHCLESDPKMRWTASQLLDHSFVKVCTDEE
T29 sequence (Q00526 whole entry): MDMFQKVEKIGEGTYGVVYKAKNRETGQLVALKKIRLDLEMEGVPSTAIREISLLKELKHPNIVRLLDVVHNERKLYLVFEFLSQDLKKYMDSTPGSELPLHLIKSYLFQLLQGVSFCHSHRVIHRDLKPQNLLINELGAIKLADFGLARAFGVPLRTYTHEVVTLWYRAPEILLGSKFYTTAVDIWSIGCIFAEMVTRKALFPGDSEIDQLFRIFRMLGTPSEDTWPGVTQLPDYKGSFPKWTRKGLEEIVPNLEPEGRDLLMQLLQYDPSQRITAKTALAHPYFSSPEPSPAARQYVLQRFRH
T3 sequence (P06239 whole entry): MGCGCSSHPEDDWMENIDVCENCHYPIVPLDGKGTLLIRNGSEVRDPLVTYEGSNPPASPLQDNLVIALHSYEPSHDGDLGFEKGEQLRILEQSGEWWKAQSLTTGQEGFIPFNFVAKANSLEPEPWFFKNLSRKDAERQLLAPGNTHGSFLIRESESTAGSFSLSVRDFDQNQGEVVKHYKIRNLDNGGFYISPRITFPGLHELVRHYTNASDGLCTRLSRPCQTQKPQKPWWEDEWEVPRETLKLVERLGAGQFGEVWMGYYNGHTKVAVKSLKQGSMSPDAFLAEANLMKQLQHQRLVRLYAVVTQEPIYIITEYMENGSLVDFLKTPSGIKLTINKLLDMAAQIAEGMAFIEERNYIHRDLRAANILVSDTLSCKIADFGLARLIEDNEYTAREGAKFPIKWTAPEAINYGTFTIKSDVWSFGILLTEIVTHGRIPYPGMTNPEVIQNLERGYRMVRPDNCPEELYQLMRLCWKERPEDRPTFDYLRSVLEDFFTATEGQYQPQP
T26 sequence (P48730 whole entry): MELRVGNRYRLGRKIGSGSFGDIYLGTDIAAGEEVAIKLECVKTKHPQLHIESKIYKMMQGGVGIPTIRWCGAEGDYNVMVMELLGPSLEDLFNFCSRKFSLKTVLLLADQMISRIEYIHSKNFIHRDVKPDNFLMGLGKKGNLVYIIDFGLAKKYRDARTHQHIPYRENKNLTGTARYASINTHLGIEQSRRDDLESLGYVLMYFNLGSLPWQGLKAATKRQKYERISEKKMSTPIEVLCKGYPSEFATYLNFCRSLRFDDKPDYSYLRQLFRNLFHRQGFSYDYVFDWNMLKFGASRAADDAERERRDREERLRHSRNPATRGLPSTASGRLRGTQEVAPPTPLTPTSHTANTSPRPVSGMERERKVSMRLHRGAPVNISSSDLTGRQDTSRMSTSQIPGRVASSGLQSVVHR
T18 sequence (O75676 33-301 limits assumed): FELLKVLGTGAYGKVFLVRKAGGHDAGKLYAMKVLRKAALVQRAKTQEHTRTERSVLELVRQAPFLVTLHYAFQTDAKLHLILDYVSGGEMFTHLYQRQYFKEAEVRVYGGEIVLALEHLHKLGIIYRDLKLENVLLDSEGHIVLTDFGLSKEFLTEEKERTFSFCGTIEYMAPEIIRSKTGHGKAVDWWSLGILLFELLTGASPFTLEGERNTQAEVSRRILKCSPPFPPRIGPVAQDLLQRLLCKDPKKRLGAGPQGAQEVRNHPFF
T16 sequence (P57078 whole entry): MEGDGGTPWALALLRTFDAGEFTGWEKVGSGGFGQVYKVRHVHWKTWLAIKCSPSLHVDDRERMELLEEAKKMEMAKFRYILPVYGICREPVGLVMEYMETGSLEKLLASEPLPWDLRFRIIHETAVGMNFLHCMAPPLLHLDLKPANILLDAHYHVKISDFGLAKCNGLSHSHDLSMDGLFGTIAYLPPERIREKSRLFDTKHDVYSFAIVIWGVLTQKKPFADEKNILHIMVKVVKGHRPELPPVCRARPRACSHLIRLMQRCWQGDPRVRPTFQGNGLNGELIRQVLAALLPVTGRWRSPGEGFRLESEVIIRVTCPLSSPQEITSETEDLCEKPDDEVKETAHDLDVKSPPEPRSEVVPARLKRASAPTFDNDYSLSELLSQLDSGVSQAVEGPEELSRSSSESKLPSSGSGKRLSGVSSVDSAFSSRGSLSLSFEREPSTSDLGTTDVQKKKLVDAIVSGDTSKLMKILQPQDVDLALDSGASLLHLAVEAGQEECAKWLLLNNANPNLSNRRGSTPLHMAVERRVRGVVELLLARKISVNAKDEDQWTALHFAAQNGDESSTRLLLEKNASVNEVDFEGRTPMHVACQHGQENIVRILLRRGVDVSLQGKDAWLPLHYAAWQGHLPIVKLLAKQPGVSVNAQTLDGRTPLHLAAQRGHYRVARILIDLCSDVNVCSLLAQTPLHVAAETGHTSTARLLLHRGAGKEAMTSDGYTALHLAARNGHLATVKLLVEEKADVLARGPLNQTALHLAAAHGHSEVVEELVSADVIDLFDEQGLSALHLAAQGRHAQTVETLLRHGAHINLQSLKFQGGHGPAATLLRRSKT
T19 sequence (O60331 whole entry): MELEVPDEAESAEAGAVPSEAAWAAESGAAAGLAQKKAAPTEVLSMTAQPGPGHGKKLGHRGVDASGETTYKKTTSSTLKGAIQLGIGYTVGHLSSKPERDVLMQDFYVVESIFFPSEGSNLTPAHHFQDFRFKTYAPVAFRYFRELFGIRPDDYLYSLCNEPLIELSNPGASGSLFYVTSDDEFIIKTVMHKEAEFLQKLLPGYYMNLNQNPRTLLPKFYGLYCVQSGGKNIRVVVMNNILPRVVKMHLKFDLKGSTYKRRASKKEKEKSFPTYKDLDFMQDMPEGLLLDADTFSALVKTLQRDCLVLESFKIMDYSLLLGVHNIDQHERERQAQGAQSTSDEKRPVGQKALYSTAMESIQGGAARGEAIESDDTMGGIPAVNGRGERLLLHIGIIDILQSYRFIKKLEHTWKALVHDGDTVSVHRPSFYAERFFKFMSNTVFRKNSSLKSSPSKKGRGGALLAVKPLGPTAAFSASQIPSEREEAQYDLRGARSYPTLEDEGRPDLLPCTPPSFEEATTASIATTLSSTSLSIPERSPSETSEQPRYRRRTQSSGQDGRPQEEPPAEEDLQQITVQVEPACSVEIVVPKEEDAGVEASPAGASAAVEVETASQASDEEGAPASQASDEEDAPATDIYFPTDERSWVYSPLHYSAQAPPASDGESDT
T31 sequence (Q15418 62-321 limits assumed): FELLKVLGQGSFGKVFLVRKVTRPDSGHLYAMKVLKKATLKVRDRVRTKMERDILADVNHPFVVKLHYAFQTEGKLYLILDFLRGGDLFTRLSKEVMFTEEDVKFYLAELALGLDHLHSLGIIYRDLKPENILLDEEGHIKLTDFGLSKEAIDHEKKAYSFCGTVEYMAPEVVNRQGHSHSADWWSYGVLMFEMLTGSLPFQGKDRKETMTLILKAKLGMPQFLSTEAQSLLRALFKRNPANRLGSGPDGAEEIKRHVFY

Row | Structure (SMILES) | % Ctrl (FLT1) [% Ctrl] | % Ctrl (ULK2) [% Ctrl] | % Ctrl (LCK) [% Ctrl] | % Ctrl (LTK) [% Ctrl] | % Ctrl (CDK4) [% Ctrl] | % Ctrl (SIK) [% Ctrl] | % Ctrl (SgK110) [% Ctrl] | % Ctrl (LRRK2(G2019S)) [% Ctrl] | % Ctrl (PIK3CA(H1047Y)) [% Ctrl] | % Ctrl (AURKA) [% Ctrl] | % Ctrl (RIPK2) [% Ctrl] | % Ctrl (PCTK1) [% Ctrl] | % Ctrl (PDGFRB) [% Ctrl] | % Ctrl (AMPK-alpha1) [% Ctrl] | % Ctrl (DRAK2) [% Ctrl] | % Ctrl (RIPK4) [% Ctrl] | % Ctrl (MAP3K4) [% Ctrl] | % Ctrl (MYO3A) [% Ctrl] | % Ctrl [1] [% Ctrl] | % Ctrl (PIP5K1C) [% Ctrl] | other results
1 | CN(C)C(=O)c1ccc(N2CCCN(c3ccnc4sc(C(N)=O)c(N)c34)CC2)cc1 [15u, 3-amino-4-(4-(4-(dimethylcarbamoyl)phenyl)-1,4-diazepan-1-yl)thieno[2,3-b]pyridine-2-carboxamide] | 100 | 90 | 91 | 90 | 73 | 84 | 95 | 90 | 79 | 98 | 100 | 92 | 100 | 100 | 100 | 89 | 90 | 100 | 96 | 64 | % Ctrl (PRKCI): 100 % Ctrl; % Ctrl (FLT3(D835V)): 33 % Ctrl; % Ctrl (EGFR(L747-T751del, Sins)): 87 % Ctrl; % Ctrl (TRKC): 91 % Ctrl; % Ctrl (INSRR): 99 % Ctrl; % Ctrl (CDK9): 66 % Ctrl; % Ctrl (CSNK1D): 20 % Ctrl; % Ctrl (FRK): 100 % Ctrl; % Ctrl (CDK8): 2.6 % Ctrl; % Ctrl (CDK3): 92 % Ctrl; % Ctrl (FGFR4): 100 % Ctrl; % Ctrl [2]: 98 % Ctrl; % Ctrl (BMPR1B): 100 % Ctrl; % Ctrl (FGR): 100 % Ctrl; % Ctrl (RIPK5): 100 % Ctrl
2 | [2H]C([2H])([2H])N(C(=O)c1ccc(N2CCCN(c3ccnc4sc(C(N)=O)c(N)c34)CC2)cc1)C([2H])([2H])[2H] [15u_D6, 3-amino-4-(4-(4-(bis(methyl-d3)carbamoyl)phenyl)-1,4-diazepan-1-yl)thieno[2,3-b]pyridine-2-carboxamide] | 100 | 83 | 100 | 77 | 71 | 79 | 100 | 76 | 100 | 99 | 93 | 64 | 93 | 100 | 87 | 68 | 100 | 100 | 100 | 25 | % Ctrl (PRKCI): 100 % Ctrl; % Ctrl (FLT3(D835V)): 14 % Ctrl; % Ctrl (EGFR(L747-T751del, Sins)): 100 % Ctrl; % Ctrl (TRKC): 85 % Ctrl; % Ctrl (INSRR): 89 % Ctrl; % Ctrl (CDK9): 100 % Ctrl; % Ctrl (CSNK1D): 22 % Ctrl; % Ctrl (FRK): 97 % Ctrl; % Ctrl (CDK8): 0.25 % Ctrl; % Ctrl (CDK3): 97 % Ctrl; % Ctrl (FGFR4): 96 % Ctrl; % Ctrl [2]: 96 % Ctrl; % Ctrl (BMPR1B): 62 % Ctrl; % Ctrl (FGR): 100 % Ctrl; % Ctrl (RIPK5): 72 % Ctrl
